PubChem BioAssay AID330 (DTP/NCI, 2004)
Several values for one entry are separate records, joined by “and”; a condition that tells them apart may be missing. Equal entries are not always repeated. Toxic doses and inconclusive results are not listed.

Tested on: P388 leukemia ip, CD2F1 mice, survival T/C
Experiment: NCI In Vivo Anticancer Drug Screen. Data for tumor model P388 Leukemia (intraperitoneal) in CD2F1 (CDF1) mice
Settings: endpoint: median survival time, higher = longer survival
Procedure, shortened: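 Mice carrying the transplanted tumor received test compound or vehicle. Survival was recorded in each group, and the value is the treated-group measurement divided by that of the vehicle-treated control group.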

[1] = dose: 6.25 mg/kg/injection, schedule: Q04DX003 (ip), vehicle: saline with Tween-80
[2] = dose: 12.5 mg/kg/injection, schedule: Q04DX003 (ip), vehicle: saline with Tween-80
[3] = dose: 50.0 mg/kg/injection, schedule: Q01DX005 (ip), vehicle: Klucel (hydroxypropylcellulose) (HPC)
[4] = dose: 100.0 mg/kg/injection, schedule: Q01DX005 (ip), vehicle: Klucel (hydroxypropylcellulose) (HPC)
[5] = dose: 200.0 mg/kg/injection, schedule: Q01DX005 (ip), vehicle: Klucel (hydroxypropylcellulose) (HPC)
[6] = dose: 50.0 mg/kg/injection, schedule: Q01DX009 (ip), vehicle: Klucel (hydroxypropylcellulose) (HPC)
[7] = dose: 100.0 mg/kg/injection, schedule: Q01DX009 (ip), vehicle: Klucel (hydroxypropylcellulose) (HPC)
[8] = dose: 200.0 mg/kg/injection, schedule: Q01DX009 (ip), vehicle: Klucel (hydroxypropylcellulose) (HPC)
[9] = dose: 60.0 mg/kg/injection, schedule: Q01DX005 (ip), vehicle: saline with Tween-80
[10] = dose: 120.0 mg/kg/injection, schedule: Q01DX005 (ip), vehicle: saline with Tween-80

Question: `CC1(C)N=C(N)N=C(N)N1c1cccc(CCCCOc2ccccc2)c1` was tested. Which T/C (dose: 3.13 mg/kg/injection, schedule: Q01DX009 (ip), vehicle: saline with Tween-80) did it give?
Answer: Its T/C is 150 % of control.

Question: What about the T/C (dose: 6.25 mg/kg/injection, schedule: Q01DX009 (ip), vehicle: saline with Tween-80) of the same molecule?
Answer: Its T/C is 150 % of control.

Question: And the T/C [1]?
Answer: Its T/C is 113 % of control.

Question: And the T/C (dose: 12.5 mg/kg/injection, schedule: Q01DX009 (ip), vehicle: saline with Tween-80)?
Answer: The T/C was 154 % of control.

Question: What about the T/C [2] of the same molecule?
Answer: Its T/C is 109 % of control.

Question: What about the T/C (dose: 18.0 mg/kg/injection, schedule: Q01DX009 (ip), vehicle: saline with Tween-80) of the same molecule?
Answer: The T/C was 95 % of control.

Question: With `O=C(O)c1cccc2c1Cc1ccccc1-2` as the molecule, how does the T/C [3] read?
Answer: The T/C was 94 % of control.

Question: What about the T/C [4] of the same molecule?
Answer: The T/C was 92 % of control.

Question: What about the T/C [5] of the same molecule?
Answer: The T/C was 88 % of control.

Question: `C=CCSc1nc2ccc(NC(=O)/C=C/C(=O)O)cc2s1` was tested. Which T/C [6] did it give?
Answer: The T/C was 95 % of control.

Question: What about the T/C [7] of the same molecule?
Answer: The T/C was 93 % of control.

Question: What about the T/C [8] of the same molecule?
Answer: The T/C was 102 % of control.

Question: `CP1(=S)C=C(N2CCCC2)CC1` (stereo not drawn) was tested. Which T/C [6] did it give?
Answer: Its T/C is 107 % of control and 109 % of control.

Question: And the T/C [7]?
Answer: The T/C was 99 % of control and 120 % of control.

Question: What about the T/C [8] of the same molecule?
Answer: The T/C was 104 % of control and 95 % of control.

Question: With `Nc1nccc(CCc2ccccc2)n1` as the molecule, how does the T/C [9] read?
Answer: The T/C was 101 % of control.

Question: What about the T/C [10] of the same molecule?
Answer: The T/C was 95 % of control.

Question: What does the source list for `N#CC(C#N)=C(O)/C(=C/c1ccccc1[N+](=O)[O-])NC(=O)c1ccccc1`?
Answer: T/C [9]: 106 % of control; T/C [10]: 104 % of control; T/C (dose: 240.0 mg/kg/injection, schedule: Q01DX005 (ip), vehicle: saline with Tween-80): 92 % of control

Question: `CSC(CNC(=O)N(CCCl)N=O)n1cc(F)c(=O)[nH]c1=O` (stereo not drawn) was tested. Which T/C (dose: 3.12 mg/kg/injection, schedule: Q04DX003 (ip), vehicle: saline with Tween-80) did it give?
Answer: Its T/C is 161 % of control.

Question: What about the T/C [1] of the same molecule?
Answer: The T/C was 158 % of control and 171 % of control.

Question: And the T/C [2]?
Answer: The T/C was 220 % of control and 264 % of control.

Question: What about the T/C (dose: 25.0 mg/kg/injection, schedule: Q04DX003 (ip), vehicle: saline with Tween-80) of the same molecule?
Answer: The T/C was 266 % of control and 285 % of control.

Question: And the T/C (dose: 50.0 mg/kg/injection, schedule: Q04DX003 (ip), vehicle: saline with Tween-80)?
Answer: The T/C was 275 % of control and 285 % of control.

Question: What about the T/C (dose: 100.0 mg/kg/injection, schedule: Q04DX003 (ip), vehicle: saline with Tween-80) of the same molecule?
Answer: Its T/C is 110 % of control and 123 % of control.

Question: Which results are given for `N#CC1=CN(Cc2ccc3c(c2)OCO3)C=CC1`?
Answer: T/C (dose: 50.0 mg/kg/injection, schedule: Q01DX005 (ip), vehicle: Klucel + Tween-80): 100 % of control; T/C (dose: 100.0 mg/kg/injection, schedule: Q01DX005 (ip), vehicle: Klucel + Tween-80): 98 % of control; T/C (dose: 200.0 mg/kg/injection, schedule: Q01DX005 (ip), vehicle: Klucel + Tween-80): 92 % of control

Question: With `C=C(C)C1CCc2c(C)cc(OC(C)=O)c(C(=O)OC(C)=O)c2C1` (stereo not drawn) as the molecule, how does the T/C (dose: 5.0 mg/kg/injection, schedule: Q01DX005 (ip), vehicle: saline) read?
Answer: Its T/C is 107 % of control.

Question: What about the T/C (dose: 10.0 mg/kg/injection, schedule: Q01DX005 (ip), vehicle: saline) of the same molecule?
Answer: Its T/C is 105 % of control.

Question: And the T/C (dose: 20.0 mg/kg/injection, schedule: Q01DX005 (ip), vehicle: saline)?
Answer: Its T/C is 105 % of control.

Question: `CCCCCCCCCCCCc1ccc(C[N+](C)(C)CC[N+](C)(C)Cc2ccc(CCCCCCCCCCCC)cc2)cc1` was tested. Which T/C (dose: 50.0 mg/kg/injection, schedule: Q01DX009 (ip), vehicle: saline) did it give?
Answer: Its T/C is 104 % of control.

Question: For `[N-]=[N+]=CC(=O)C1OC1c1ccc2ccccc2c1` (stereo not drawn), which T/C (dose: 25.0 mg/kg/injection, schedule: Q01DX005 (ip), vehicle: saline with Tween-80) is on record?
Answer: Its T/C is 93 % of control.

Question: And the T/C (dose: 50.0 mg/kg/injection, schedule: Q01DX005 (ip), vehicle: saline with Tween-80)?
Answer: The T/C was 100 % of control.

Question: And the T/C (dose: 100.0 mg/kg/injection, schedule: Q01DX005 (ip), vehicle: saline with Tween-80)?
Answer: Its T/C is 99 % of control.

Question: What about the T/C (dose: 200.0 mg/kg/injection, schedule: Q01DX005 (ip), vehicle: saline with Tween-80) of the same molecule?
Answer: Its T/C is 105 % of control.

Question: Which results are given for `COC(=O)C[CH2][Sn]([Cl])([Cl])[Cl]`?
Answer: T/C (dose: 25.0 mg/kg/injection, schedule: Q04DX003 (ip), vehicle: saline): 98 % of control; T/C (dose: 50.0 mg/kg/injection, schedule: Q04DX003 (ip), vehicle: saline): 100 % of control; T/C (dose: 100.0 mg/kg/injection, schedule: Q04DX003 (ip), vehicle: saline): 100 % of control and 96 % of control

Question: `CC(C)(C)OC(=O)N(C=O)C(Cc1c[nH]c2ccccc12)C(=O)O` (stereo not drawn) was tested. Which T/C [3] did it give?
Answer: The T/C was 100 % of control.

Question: And the T/C [4]?
Answer: The T/C was 103 % of control.

Question: What about the T/C [5] of the same molecule?
Answer: The T/C was 99 % of control.
